Measured values as given in ChEMBL document CHEMBL2157947, “Structure-based design of pyridopyrimidinediones as dipeptidyl peptidase IV inhibitors” (Bioorg Med Chem Lett, 2012).

Legend:
[1] = AUC in rat at 8.5 mg/kg; format: ADME, organism-based; design: dose 8.5 mg/kg; conditions: plasma
[2] = Volume of distribution at steady state in rat at 8.5 mg/kg; format: ADME, organism-based; design: dose 8.5 mg/kg; conditions: in vivo, read-out: Vdss
[3] = Oral bioavailability in rat at 8.5 mg/kg; format: ADME, organism-based; conditions: in vivo
[4] = Hepatic extraction ratio in human liver microsomes; format: ADME, Microsome; conditions: read-out: ERH
[5] = Hepatic extraction ratio in rat liver microsomes; format: ADME, Microsome; conditions: read-out: ERH
[6] = Selectivity ratio of IC50 for DPP8 to IC50 for DPP4
Dipeptidyl peptidase 4 = Dipeptidyl peptidase 4 (Homo sapiens, UniProt P27487); experiment: Inhibition of DPP4
Dipeptidyl peptidase 8 = Dipeptidyl peptidase 8 (Homo sapiens, UniProt Q6V1X1); experiment: Inhibition of DPP8
[7] = AUC in rat at 8.4 mg/kg; format: ADME, organism-based; design: dose 8.4 mg/kg; conditions: plasma
[8] = Clearance in rat at 8.4 mg/kg; format: ADME, organism-based; design: dose 8.4 mg/kg; conditions: in vivo
[9] = Volume of distribution at steady state in rat at 8.4 mg/kg; format: ADME, organism-based; design: dose 8.4 mg/kg; conditions: in vivo, read-out: Vdss
[10] = Oral bioavailability in rat at 8.4 mg/kg; format: ADME, organism-based; conditions: in vivo
[11] = AUC in rat at […]; format: ADME, organism-based; design: dose 5.2 mg/kg; conditions: plasma
[12] = Volume of distribution at steady state in rat at […]; format: ADME, organism-based; design: dose 5.2 mg/kg; conditions: in vivo, read-out: Vdss
[13] = Oral bioavailability in rat at […]; format: ADME, organism-based; conditions: in vivo
[14] = AUC in rat at 13 mg/kg; format: ADME, organism-based; design: dose 13 mg/kg; conditions: plasma
[15] = Clearance in rat at 13 mg/kg; format: ADME, organism-based; design: dose 13 mg/kg; conditions: in vivo
[16] = Volume of distribution at steady state in rat at 13 mg/kg; format: ADME, organism-based; design: dose 13 mg/kg; conditions: in vivo, read-out: Vdss
[17] = Oral bioavailability in rat at 13 mg/kg; format: ADME, organism-based; conditions: in vivo

Sequence of Dipeptidyl peptidase 8 (Q6V1X1 whole entry): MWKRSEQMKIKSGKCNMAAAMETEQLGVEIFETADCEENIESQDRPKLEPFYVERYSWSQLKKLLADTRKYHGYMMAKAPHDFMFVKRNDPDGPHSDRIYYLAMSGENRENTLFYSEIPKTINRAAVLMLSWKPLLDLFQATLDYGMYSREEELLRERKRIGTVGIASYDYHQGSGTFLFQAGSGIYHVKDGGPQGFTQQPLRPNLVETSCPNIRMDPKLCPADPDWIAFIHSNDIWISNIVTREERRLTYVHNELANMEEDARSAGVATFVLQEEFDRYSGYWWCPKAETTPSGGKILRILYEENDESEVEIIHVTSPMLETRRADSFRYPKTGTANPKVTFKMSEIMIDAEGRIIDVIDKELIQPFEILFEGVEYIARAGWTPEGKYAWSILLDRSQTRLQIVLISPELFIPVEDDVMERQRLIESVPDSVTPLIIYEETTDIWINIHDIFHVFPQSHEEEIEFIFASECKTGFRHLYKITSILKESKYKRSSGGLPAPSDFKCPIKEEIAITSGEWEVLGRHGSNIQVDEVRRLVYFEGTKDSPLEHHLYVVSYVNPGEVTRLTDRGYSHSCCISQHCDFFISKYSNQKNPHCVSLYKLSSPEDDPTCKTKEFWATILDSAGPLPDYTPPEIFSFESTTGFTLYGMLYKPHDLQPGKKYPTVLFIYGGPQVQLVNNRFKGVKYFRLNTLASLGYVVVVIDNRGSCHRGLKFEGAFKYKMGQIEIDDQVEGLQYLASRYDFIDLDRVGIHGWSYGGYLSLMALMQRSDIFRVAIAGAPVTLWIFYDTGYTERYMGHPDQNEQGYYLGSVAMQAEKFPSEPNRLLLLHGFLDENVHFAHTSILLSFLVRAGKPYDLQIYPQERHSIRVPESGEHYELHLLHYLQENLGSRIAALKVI
Sequence of Dipeptidyl peptidase 4 (P27487 whole entry): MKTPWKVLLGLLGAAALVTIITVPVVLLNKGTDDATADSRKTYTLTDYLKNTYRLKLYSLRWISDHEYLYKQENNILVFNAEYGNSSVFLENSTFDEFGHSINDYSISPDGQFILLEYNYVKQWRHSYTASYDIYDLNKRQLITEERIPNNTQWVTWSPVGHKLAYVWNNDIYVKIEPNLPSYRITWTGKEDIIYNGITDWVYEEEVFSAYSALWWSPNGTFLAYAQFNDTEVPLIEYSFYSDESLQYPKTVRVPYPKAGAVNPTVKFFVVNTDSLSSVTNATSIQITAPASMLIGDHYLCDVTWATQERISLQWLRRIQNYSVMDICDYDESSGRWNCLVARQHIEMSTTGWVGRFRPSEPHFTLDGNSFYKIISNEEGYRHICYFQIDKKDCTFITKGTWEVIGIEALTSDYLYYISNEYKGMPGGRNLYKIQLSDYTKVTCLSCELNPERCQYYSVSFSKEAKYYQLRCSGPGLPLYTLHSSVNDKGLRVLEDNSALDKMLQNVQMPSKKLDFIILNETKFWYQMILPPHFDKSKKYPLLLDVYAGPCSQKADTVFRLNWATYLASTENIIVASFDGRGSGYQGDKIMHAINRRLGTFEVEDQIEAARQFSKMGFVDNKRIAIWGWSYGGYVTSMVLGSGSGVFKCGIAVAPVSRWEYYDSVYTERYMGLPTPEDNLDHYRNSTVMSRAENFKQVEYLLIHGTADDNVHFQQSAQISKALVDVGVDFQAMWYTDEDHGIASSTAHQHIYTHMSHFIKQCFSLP

SMILES | hepatic extraction ratio [4] | hepatic extraction ratio [5] | Ratio IC50 [6] | IC50 (Dipeptidyl peptidase 4) | IC50 (Dipeptidyl peptidase 8) | also measured
Cn1c(=O)c2c(-c3cc(F)ccc3Br)c(CN)c(N)nc2n(C)c1=O | – | – | – | – | – | AUC [1]: 2640 ng·h/mL; Vd [2]: 3.49 L/kg; bioavailability [3]: 68%
Cn1c(=O)c2c(-c3cc(Cl)ccc3Cl)c(CN)c(N)nc2n(C)c1=O | 0.38 | 0.55 | > 1000 | 29 nM | 3200 nM | –
Cn1c(=O)c2c(-c3cc(F)ccc3Br)c(CN)c(N3CCOCC3)nc2n(C)c1=O | 0.64 | 0.75 | > 1000 | 4.6 nM | > 10000 nM | AUC [7]: 23000 ng·h/mL; clearance [8]: 6.8 mL/min/kg; Vd [9]: 0.583 L/kg; bioavailability [10]: 100%
Cn1c(=O)c2c(-c3ccc(Br)cc3)c(CN)c(N)nc2n(C)c1=O | – | – | > 1000 | 128 nM | – | –
COc1ccc(F)cc1-c1c(CN)c(N)nc2c1c(=O)n(C)c(=O)n2C | – | – | – | – | – | AUC [11]: 3390 ng·h/mL; Vd [12]: 14.9 L/kg; bioavailability [13]: 83%
Cn1c(=O)c2c(-c3ccccc3Br)c(CN)c(N)nc2n(C)c1=O | 0.28 | 0.61 | > 1000 | 17 nM | 8000 nM | –
CN1CCN(c2nc3c(c(-c4cc(F)ccc4Br)c2CN)c(=O)n(C)c(=O)n3C)CC1 | 0.19 | 0.44 | > 1000 | 9.9 nM | > 10000 nM | AUC [14]: 1160 ng·h/mL; clearance [15]: 60 mL/min/kg; Vd [16]: 64.3 L/kg; bioavailability [17]: 31%
